Experiments:
Format in all cases: cell-based, human
Barx2 = assay: Azacytidine demethylation, Barx2 re-expression in OAW42; conditions: OAW42, 96 hours, 0.5 μM azacytidine
Protocol: OAW42 was exposed to 5-azacytidine for 96 hours at different concentrations. […] Feint expression is seen for barx2 in OAW42 control, but strong induction of barx2 expression is seen at 0.5 μM azacytidine relative to actin signal.
OAW42 was exposed to 5-azacytidine for 96 hours at different concentrations.

PEO1CDDP [1] = assay: Growth (cell counts) of PEO1CDDP transfectant clones exposed to cisplatinum; conditions: day 13
Protocol: We tested whether the introduction of Barx2 into PEO1CDDP altered its sensitivity to cisplatinum. 25000 cells were plated. Two days later, varying concentrations of cisplatinum were applied for 3 days, and then removed. Refeeding of the cells was performed every three days until day 13 with cell counts performed every three days.
CH1.1 is a control PEO1CDDP derivative clone that has been transfected with the pBabe Hygro empty vector (the same vector into which BarX2 was cloned) and behave as the parent line. CB3.6 is a BarX2 transfected growth suppressed clone. Both are exposed to increasing concentrations of cisplatinum.
The result of this experiment is seen particularly at the 1 μM cisplatinum concentration. Compared with no cisplatinum, the control cell line grows to 85% control at 1 μM cisplatinum at day 13. At the same timepoint and concentration of platinum, the BarX2 transfected platinum resistant cell line grows to only 69% of control. This increase in platinum sensitivity (or reduction in resistance) upon BarX2 transfection is consistent with the observed aberrant expression of the 5′ BarX2 transcript noted by RT-PCR in the PEO series of cell lines. Whether BarX2 induces sensitivity, reduces resistance, or both is not understood and the underlying mechanism is currently being explored.

PEO1 = assay: 12 day growth inhibition assay with cisplatin, PEO1 with and without Barx2 transfection; conditions: PEO1, across the cisplatin concentration range
Description: (§1) Transfection of BARX2 into OVCAR3, OAW42, PEO1 and PEO1-CDDP suppresses cell growth. In OAW42, this is accompanied by suppression of matrigel invasion, cell migration and adhesion and partial G1/S-phase block. […] This is consistent with recent thinking for molecular mechanisms of cytotoxicity in clinical cancer, and clonogenic assays are shown in FIG. 35.

PEO1CDDP [2] = assay: 12 day growth inhibition assay with cisplatin, PEO1CDDP with and without Barx2 transfection; conditions: across the cisplatin concentration range
PEO4 = assay: Cisplatin resistance of PEO4 cell line relative to PEO1; conditions: PEO4, derived after relapse following high dose cisplatin in vivo
Description: (§2) In FIG. 4, the 5′ end (F1R1) and the 3′ end (F3R3) of the BarX2 transcript are amplified by RT-PCR using the primers given. PEO1, PEO4, PEO6 and PEOCDDP are four cell lines derived from a patient with ovarian cancer. […] Another cell line PEO4 was derived from the same patient when they relapsed again after treatment with high dose cisplatin chemotherapy in vivo. This cell line is approx four-fold resistant relative to PEO1.

[3] = system: PEO1 cisplatin sensitive and resistant cell lines; assay: Annexin-V-FACS apoptosis after cisplatin
Protocol: Flow-cytometric detection of phosphatidylserine expression in cell lines and MHCs was performed according to the manufacturer's method using the Fluorescein labelled Annexin-V Apoptosis Detection Kit (R&D systems) (Vermes et al, 1995). The measure of early apoptosis derives from the assessment of the proportion of Annexin-V positives Propidium Iodide negative cells.
as §1

PEO1 CDDP cell line = assay: Cisplatin resistance of PEO1 CDDP cell line relative to PEO1; conditions: developed by exposing PEO1 to cisplatinum in vitro
Description: as §2

[4] = system: PEO1CDDP transfectant cell lines; assay: Clonogenic assay of PEO1CDDP transfectants after cisplatinum exposure; conditions: CB1.3, CB3.6 vs CH1.1, CH2.2; 3 day exposure, 1.0 μM cisplatinum; p<0.0001
Protocol: FIG. 35. The PEO1CCDP pBABE Hygromycin control transfectant cell lines CH1.1 and CH2.2, and the PEO1CDDP pBABE BARX2 transfectant cell lines CB1.3 and CB3.6, were assayed for survival at day 12 following 3 day exposure to 0 μM, 1.0 μM and 2.0 μM cisplatinum in a clonogenic assay.

Row | SMILES | induction of Barx2 expression (Barx2) | growth compared with no cisplatinum (PEO1CDDP [1]; BarX2 transfected clone CB3.6, 1 μM cisplatinum for 3 days) | growth compared with no cisplatinum (PEO1CDDP [1]; control clone CH1.1 (pBabe Hygro empty vector), 1 μM cisplatinum for 3 days) | change of sensitivity to cisplatin as a result of Barx2 transfection (PEO1) | increase of platinum sensitivity by Barx2 transfection (PEO1CDDP [2]) | resistance relative to PEO1 (PEO4) | apoptosis, sensitive versus resistant cell lines ([3]; 1.5 or 5 micromolar cisplatin, between 1 hr and 40 hr) | apoptosis in response to cisplatin in BARX2 transfected cells ([3]; BARX2 transfected PEO1 and PEO1-CDDP) | resistance to cisplatin relative to PEO1 (PEO1 CDDP cell line) | increase in platinum sensitivity following BARX2 transfection (survival at day 12) [4]
1 | Nc1ncn([C@@H]2O[C@H](CO)[C@@H](O)[C@H]2O)c(=O)n1 [5-azacytidine] | Clear induction |  |  |  |  |  |  |  |  | 
2 | N.N.[Cl][Pt][Cl] [cisplatin] |  | 69% | 85% | not significantly altered | six | approx four | no significant differences | no increase in apoptosis | 18 fold | statistically significant

Source: patent US20030087243A1, “Diagnosis, prognosis and treatment of cancer related to the Barx2 gene” (priority 1999, published 2003)
